Test results as given in ChEMBL document CHEMBL1149877, “Synthesis and biological activities of 2-oxocycloalkylsulfonamides” (Bioorg Med Chem, 2008).
Values after ≈ are worked out from the molar mass of the structure shown.

Experiments:
Bel-7402 = experiment: Antitumor activity against human Bel7402 cells at 100 ug/mL by SRB method; format: functional
Sclerotinia sclerotiorum = experiment: Antifungal activity against Sclerotinia sclerotiorum; format: functional, organism-based
HL-60 = experiment: Antitumor activity against human HL60 cells at 100 ug/mL by MTT method; format: functional
KB = experiment: Antitumor activity against human KB cells at 100 ug/mL by SRB method; format: functional
Botrytis cinerea = experiment: Antifungal activity against Botrytis cinerea Pers; format: functional, organism-based
BGC-823 = experiment: Antitumor activity against human BGC823 cells at 100 ug/mL by SRB method; format: functional

O=C1CCCCC1S(=O)(=O)Nc1ccccc1Cl (centres undefined)
inhibition at 100 µg/mL (Bel-7402): 1.98%
EC50 (Sclerotinia sclerotiorum): 69.4 µg/mL (≈ 241 µM)
inhibition at 100 µg/mL (HL-60): 0.29%
inhibition at 100 µg/mL (KB): -10.1%
EC50 (Botrytis cinerea): 35.2 µg/mL (≈ 122 µM)
inhibition at 100 µg/mL (BGC-823): 29.2%

O=C1CCCCC1S(=O)(=O)Nc1ccc(Cl)cc1 (centres undefined)
inhibition at 100 µg/mL (Bel-7402): 4.47%
EC50 (Sclerotinia sclerotiorum): 53.4 µg/mL (≈ 186 µM)
inhibition at 100 µg/mL (HL-60): -13%
inhibition at 100 µg/mL (KB): -3.83%
EC50 (Botrytis cinerea): 17 µg/mL (≈ 59 µM)
inhibition at 100 µg/mL (BGC-823): 16%

O=C1CCCCC1S(=O)(=O)Nc1ccc(Cl)c(Cl)c1 (centres undefined)
inhibition at 100 µg/mL (Bel-7402): 1.39%
EC50 (Sclerotinia sclerotiorum): 24.2 µg/mL (≈ 75.2 µM)
inhibition at 100 µg/mL (HL-60): 13.5%
inhibition at 100 µg/mL (KB): 17.8%
EC50 (Botrytis cinerea): 7.23 µg/mL (≈ 22.4 µM)
inhibition at 100 µg/mL (BGC-823): 5.54%

Cc1cc(F)ccc1NS(=O)(=O)C1CCCCC1=O (centres undefined)
inhibition at 100 µg/mL (Bel-7402): 3.22%
EC50 (Sclerotinia sclerotiorum): 137 µg/mL (≈ 480 µM)
inhibition at 100 µg/mL (HL-60): -0.99%
inhibition at 100 µg/mL (KB): -3.72%
EC50 (Botrytis cinerea): 37.7 µg/mL (≈ 132 µM)
inhibition at 100 µg/mL (BGC-823): 28.7%

O=C1CCCCC1S(=O)(=O)Nc1ccc(Cl)cc1C(F)(F)F (centres undefined)
inhibition at 100 µg/mL (Bel-7402): 20.9%
EC50 (Sclerotinia sclerotiorum): 47.5 µg/mL (≈ 134 µM)
inhibition at 100 µg/mL (HL-60): 78.6%
inhibition at 100 µg/mL (KB): 11.2%
EC50 (Botrytis cinerea): 2.12 µg/mL (≈ 5.96 µM)
inhibition at 100 µg/mL (BGC-823): 36.4%

Cc1ccc(NS(=O)(=O)C2CCCCC2=O)c(C)c1 (centres undefined)
inhibition at 100 µg/mL (Bel-7402): 0.52%
EC50 (Sclerotinia sclerotiorum): 112 µg/mL (≈ 397 µM)
inhibition at 100 µg/mL (HL-60): 12.2%
inhibition at 100 µg/mL (KB): 7.97%
EC50 (Botrytis cinerea): 17 µg/mL (≈ 60.3 µM)
inhibition at 100 µg/mL (BGC-823): 15.6%

O=C1CCCCC1S(=O)(=O)Nc1cc(C(F)(F)F)cc(C(F)(F)F)c1 (centres undefined)
inhibition at 100 µg/mL (Bel-7402): 66.9%
EC50 (Sclerotinia sclerotiorum): 24.1 µg/mL (≈ 62 µM)
inhibition at 100 µg/mL (HL-60): 95.9%
inhibition at 100 µg/mL (KB): 76%
EC50 (Botrytis cinerea): 3.96 µg/mL (≈ 10.2 µM)
inhibition at 100 µg/mL (BGC-823): 70.8%

O=C1CCCCC1S(=O)(=O)N1CCOCC1 (centres undefined)
inhibition at 100 µg/mL (Bel-7402): 6.01%
EC50 (Sclerotinia sclerotiorum): 331 µg/mL (≈ 1340 µM)
inhibition at 100 µg/mL (HL-60): 11%
inhibition at 100 µg/mL (KB): -4.35%
EC50 (Botrytis cinerea): 85.2 µg/mL (≈ 345 µM)
inhibition at 100 µg/mL (BGC-823): 21.3%

O=C1CCCCC1S(=O)(=O)Nc1ccccc1Br (centres undefined)
inhibition at 100 µg/mL (Bel-7402): 22.1%
EC50 (Sclerotinia sclerotiorum): 47.8 µg/mL (≈ 144 µM)
inhibition at 100 µg/mL (HL-60): 15.3%
inhibition at 100 µg/mL (KB): -14.4%
EC50 (Botrytis cinerea): 50.6 µg/mL (≈ 152 µM)
inhibition at 100 µg/mL (BGC-823): 29.6%

O=C1CCCCC1S(=O)(=O)Nc1cccc(C(F)(F)F)c1 (centres undefined)
inhibition at 100 µg/mL (Bel-7402): 11.4%
EC50 (Sclerotinia sclerotiorum): 144 µg/mL (≈ 448 µM)
inhibition at 100 µg/mL (HL-60): 17%
inhibition at 100 µg/mL (KB): -6.3%
EC50 (Botrytis cinerea): 85.2 µg/mL (≈ 265 µM)
inhibition at 100 µg/mL (BGC-823): 21.6%

Cc1cccc(NS(=O)(=O)C2CCCCC2=O)c1C (centres undefined)
inhibition at 100 µg/mL (Bel-7402): 21.8%
EC50 (Sclerotinia sclerotiorum): 59.3 µg/mL (≈ 211 µM)
inhibition at 100 µg/mL (HL-60): 9.38%
inhibition at 100 µg/mL (KB): -20.6%
EC50 (Botrytis cinerea): 24.2 µg/mL (≈ 86 µM)
inhibition at 100 µg/mL (BGC-823): 24.5%

COc1cc(OC)nc(NS(=O)(=O)C2CCCCC2=O)n1 (centres undefined)
inhibition at 100 µg/mL (Bel-7402): 39.3%
EC50 (Sclerotinia sclerotiorum): 197 µg/mL (≈ 626 µM)
inhibition at 100 µg/mL (HL-60): 2.62%
inhibition at 100 µg/mL (KB): 2.73%
EC50 (Botrytis cinerea): 28.6 µg/mL (≈ 90.8 µM)
inhibition at 100 µg/mL (BGC-823): 26.4%

O=C1CCCCCC1S(=O)(=O)Nc1ccc(Cl)c(Cl)c1 (centres undefined)
inhibition at 100 µg/mL (Bel-7402): 4.03%
EC50 (Sclerotinia sclerotiorum): 16.4 µg/mL (≈ 48.7 µM)
inhibition at 100 µg/mL (HL-60): 15%
inhibition at 100 µg/mL (KB): -6.3%
EC50 (Botrytis cinerea): 2.38 µg/mL (≈ 7.08 µM)
inhibition at 100 µg/mL (BGC-823): 28.9%

Cc1cccc(NS(=O)(=O)C2CCCCCC2=O)c1C (centres undefined)
inhibition at 100 µg/mL (Bel-7402): 12.1%
EC50 (Sclerotinia sclerotiorum): 47.6 µg/mL (≈ 161 µM)
inhibition at 100 µg/mL (HL-60): 22.9%
inhibition at 100 µg/mL (KB): 2.01%
EC50 (Botrytis cinerea): 11.6 µg/mL (≈ 39.3 µM)
inhibition at 100 µg/mL (BGC-823): 23.8%

O=C1CCCCCC1S(=O)(=O)Nc1cc(C(F)(F)F)cc(C(F)(F)F)c1 (centres undefined)
inhibition at 100 µg/mL (Bel-7402): 45.3%
EC50 (Sclerotinia sclerotiorum): 8.05 µg/mL (≈ 20 µM)
inhibition at 100 µg/mL (HL-60): 95.8%
inhibition at 100 µg/mL (KB): 59%
EC50 (Botrytis cinerea): 2.43 µg/mL (≈ 6.02 µM)
inhibition at 100 µg/mL (BGC-823): 57%

Cc1ccc(NS(=O)(=O)C2CCCCC2=O)cc1 (centres undefined)
inhibition at 100 µg/mL (Bel-7402): 27.5%
EC50 (Sclerotinia sclerotiorum): 116 µg/mL (≈ 434 µM)
inhibition at 100 µg/mL (HL-60): -3.55%
inhibition at 100 µg/mL (KB): -22.2%
EC50 (Botrytis cinerea): 21.2 µg/mL (≈ 79.4 µM)
inhibition at 100 µg/mL (BGC-823): 32%

O=C1CCCCC1S(=O)(=O)Nc1cc(C(F)(F)F)ccc1C(F)(F)F (centres undefined)
inhibition at 100 µg/mL (Bel-7402): 68.3%
EC50 (Sclerotinia sclerotiorum): 70.5 µg/mL (≈ 181 µM)
inhibition at 100 µg/mL (HL-60): 95.7%
inhibition at 100 µg/mL (KB): 68.6%
EC50 (Botrytis cinerea): 3.66 µg/mL (≈ 9.4 µM)
inhibition at 100 µg/mL (BGC-823): 57.7%

N#Cc1c(Cl)c(Cl)c(Cl)c(C#N)c1Cl [CHLOROTHALONIL]
EC50 (Sclerotinia sclerotiorum): 7.16 µg/mL (≈ 26.9 µM)

CC12CC1(C)C(=O)N(c1cc(Cl)cc(Cl)c1)C2=O (centres undefined) [PROCYMIDONE]
EC50 (Botrytis cinerea): 2.45 µg/mL (≈ 8.62 µM)
